# According to BindingDB's records for doi:10.3109/14756366.2010.550890 (Jamia Hamdard University, 2011):
# Key:
# [1] = target: T1, Prostaglandin G/H synthase 2 (Ovis aries, UniProt P79208); test: COX Inhibition Assay; settings: pH 8; 37 °C
# T1 sequence (P79208 whole entry): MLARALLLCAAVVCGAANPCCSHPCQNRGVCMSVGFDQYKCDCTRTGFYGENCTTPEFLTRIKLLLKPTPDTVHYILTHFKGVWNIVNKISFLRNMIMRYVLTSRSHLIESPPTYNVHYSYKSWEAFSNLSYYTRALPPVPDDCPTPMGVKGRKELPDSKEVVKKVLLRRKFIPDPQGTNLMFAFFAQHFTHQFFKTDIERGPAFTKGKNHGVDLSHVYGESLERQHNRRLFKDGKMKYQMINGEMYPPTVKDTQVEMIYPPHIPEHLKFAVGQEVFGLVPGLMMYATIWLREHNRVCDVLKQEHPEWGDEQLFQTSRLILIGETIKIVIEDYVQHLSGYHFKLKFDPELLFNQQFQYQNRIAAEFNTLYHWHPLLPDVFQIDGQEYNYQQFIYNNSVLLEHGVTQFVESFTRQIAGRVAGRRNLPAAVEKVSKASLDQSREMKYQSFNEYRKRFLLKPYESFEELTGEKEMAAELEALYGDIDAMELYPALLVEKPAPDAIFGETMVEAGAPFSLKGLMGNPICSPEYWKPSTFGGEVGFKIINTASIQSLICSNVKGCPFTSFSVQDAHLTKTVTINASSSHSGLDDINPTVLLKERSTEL
# Procedure: (§1) Stock solutions of test compounds were dissolved in a minimum volume of dimethyl sulphoxide (DMSO) toobtain 0.001, 0.01, 0.1, 1, 10, 100, and 500 μM in a final volume of 1 mL. In brief, haematin reconstituted purified COX-1 and COX-2 enzymes in a reaction buffer containing Tris-hydrochloric acid (HCl) (0.1 M, pH 8.0), 5 mM ethylenediaminetetraacetic acid (EDTA), and 2 mM phenol were pre-incubated at room temperature for 1 h with test compounds followed by the addition of AA (100 μM)for 2 min at 37°C. Reactions were terminated by adding 50 μL of 1 M HCl followed by the addition of 100 μL of stannous chloride.
# [2] = target: T2, Prostaglandin G/H synthase 1 (Ovis aries, UniProt P05979); test: COX Inhibition Assay; settings: pH 8; 37 °C
# T2 sequence (P05979 whole entry): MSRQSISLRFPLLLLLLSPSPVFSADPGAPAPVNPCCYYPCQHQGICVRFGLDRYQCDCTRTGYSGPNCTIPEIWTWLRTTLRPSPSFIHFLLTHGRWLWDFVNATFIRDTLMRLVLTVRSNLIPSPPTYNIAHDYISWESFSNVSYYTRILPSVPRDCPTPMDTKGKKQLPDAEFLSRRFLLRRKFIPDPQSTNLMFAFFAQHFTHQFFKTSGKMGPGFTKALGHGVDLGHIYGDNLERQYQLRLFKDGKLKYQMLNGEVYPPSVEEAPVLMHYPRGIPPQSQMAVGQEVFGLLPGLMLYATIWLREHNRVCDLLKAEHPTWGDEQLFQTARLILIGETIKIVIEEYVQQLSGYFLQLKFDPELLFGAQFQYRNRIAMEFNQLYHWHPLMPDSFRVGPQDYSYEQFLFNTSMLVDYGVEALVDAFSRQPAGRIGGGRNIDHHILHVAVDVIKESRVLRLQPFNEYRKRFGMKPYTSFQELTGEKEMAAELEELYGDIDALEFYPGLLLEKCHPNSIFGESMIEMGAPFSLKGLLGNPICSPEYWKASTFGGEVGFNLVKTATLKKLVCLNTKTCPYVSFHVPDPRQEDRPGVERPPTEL
# Procedure: as §1
IC50 [1] [µM],IC50 [2] [µM],Compound
1.2,35,"O=c1oc2ccccc2cc1-c1nnc(-c2ccc(Cl)cc2)o1 [3-[5-(4-Chloro-phenyl)-[1,3,4]oxadiazol-2-yl]-chromen-2-one (4b)]"
> 100,> 100,"O=c1oc2ccccc2cc1-c1nnc(Nc2ccc(Cl)cc2)o1 [3-[5-(4-Chloro-phenylamino)-[1,3,4]oxadiazol-2-yl]-chromen-2-one (6b)]"
0.4,41.6,"O=c1oc2ccccc2cc1-c1nnc(-c2ccc(Cl)cc2Cl)o1 [3-[5-(2,4-Dichloro-phenyl)-[1,3,4]oxadiazol-2-yl]-chromen-2-one (4e)]"
36.6,> 100,"Cc1ccccc1Nc1nnc(-c2cc3ccccc3oc2=O)o1 [3-(5-o-Tolylamino-[1,3,4]oxadiazol-2-yl)-chromen-2-one (6e)]"
> 100,> 100,"O=C(Nc1nnc(-c2cc3ccccc3oc2=O)o1)c1ccc(Cl)cc1 [4-Chloro-N-[5-(2-oxo-2H-chromen-3-yl)-[1,3,4]oxadiazol-2-yl]-benzamide (8b)]"
1.18,> 100,"Cc1ccc(-c2nnc(-c3cc4ccccc4oc3=O)o2)cc1 [3-(5-p-Tolyl-[1,3,4]oxadiazol-2-yl)-chromen-2-one (4c)]"
8.7,< 100,"O=c1oc2ccccc2cc1-c1nnc(-c2ccccc2)o1 [3-(5-Phenyl-[1,3,4]oxadiazol-2-yl)-chromen-2-one (4a)]"
